Earlier results as cited in patent US8540972B2, “Sunscreen product comprising hydroxyapatite as physical filter” (Kalichem Italia S.R.L., priority 2009, dated 2013).

Tested on: HeLa cells

## titanium dioxide [TiO2]
  fate of HeLa cells after UV irradiation in the presence of the substance: die
